From patent US10100046B2, “Inhibitors of lysine specific demethylase-1” (Celgene Quanticel Research, Inc., priority 2014, dated 2018) come the findings set out here.

Assay [1] deals with THP-1 (AML) cells. In words: LSD1 CD11b Cellular Assay (flow cytometry). Format: cell-based. The following applies: Homo sapiens, 96 h; CD11b expression in THP-1 cells, 4 days. As to the method: To analyze LSD1 inhibitor efficacy in cells, a CD11b flow cytometry assay was performed. LSD1 inhibition induces CD11b expression in THP-1 (AML) cells which can be measured by flow cytometry. […] LSD1 test compounds were serially diluted in DMSO. The dilutions were added to each well accordingly to a final concentration of 0.2% DMSO. The cells were incubated at 37 degrees Celsius in 5% CO2 for 4 days. 250 μL of each well was transferred to a well in a 96 well round bottom plate. The plate was centrifuged at 1200 rpm at 4 degrees Celsius in a Beckman Coulter Alegra 6KR centrifuge for 5 minutes. The media was removed leaving the cells at the bottom of the wells. The cells were washed in 100 μL cold HBSS (Hank's Balanced Salt Solution) plus 2% BSA (Bovine Serum Albumin) solution and centrifuged at 1200 rpm at 4 degrees Celsius for 5 minutes. The wash was removed. […] The cells were centrifuged and washed two times in 100 μl HBSS plus 2% BSA. After the final spin the cells were resuspended in 100 μL HBSS plus 2% BSA containing 1 ug/mL DAPI (4′,6-diamidino-2-phenylindole). The cells were then analyzed by flow cytometry in a BD FACSAria machine. Cells were analyzed for CD11b expression. The percent of CD11b expressing cells for each inhibitor concentration was used to determine an IC50 curve for each compound analyzed.
On the technique in general: In flow cytometry, cells or beads pass a laser one at a time.

The target in assay [2] is full-length human LSD1 (Homo sapiens (Human), UniProt O60341). The assay can be described thus: In Vitro Enzyme Inhibition Assay—LSD-1 (TR-FRET). The conditions noted are these: H3K4me1-biotin labeled peptide. The class given is biochemical. On the procedure:
This assay determines the ability of a test compound to inhibit LSD1 demethylase activity. E. coli expressed full-length human LSD1 (Accession number 060341) was purchased from Active Motif (Cat#31334).
The enzymatic assay of LSD1 activity is based on Time Resolved-Fluorescence Resonance Energy Transfer (TR-FRET) detection. The inhibitory properties of compounds to LSD1 were determined in 384-well plate format under the following reaction conditions: 0.1-0.5 nM LSD1, 50 nM H3K4me1-biotin labeled peptide (Anaspec cat #64355), 2 μM FAD in assay buffer of 50 mM HEPES, pH7.3, 10 mM NaCl, 0.005% Brij35, 0.5 mM TCEP, 0.2 mg/ml BSA. Reaction product was determined quantitatively by TR-FRET after the addition of detection reagent Phycolink Streptavidin-allophycocyanin (Prozyme) and Europium-anti-unmodified histone H3 lysine 4 (H3K4) antibody (PerkinElmer) in the presence of LSD1 inhibitor such as 1.8 mM of Tranylcypromine hydrochloride (2-PCPA) in LANCE detection buffer (PerkinElmer) to final concentration of 12.5 nM and 0.25 nM respectively.
The assay reaction was performed according to the following procedure: 2 μL of the mixture of 150 nM H3K4me1-biotin labeled peptide with 2 μL of 11-point serial diluted test compound in 3% DMSO were added to each well of plate, followed by the addition of 2 μL of 0.3 nM LSD1 and 6 μM of FAD to initiate the reaction. The reaction mixture was then incubated at room temperature for one hour, and terminated by the addition of 6 μL of 1.8 mM 2-PCPA in LANCE detection buffer containing 25 nM Phycolink Streptavidin-allophycocyanin and 0.5 nM Europium-anti-unmodified H3K4 antibody. Enzymatic reaction is terminated within 15 minutes if 0.5 LSD1 enzyme is used in the plate. Plates were read by EnVision Multilabel Reader in TR-FRET mode (excitation at 320 nm, emission at 615 nm and 665 nm) after 1 hour incubation at room temperature. A ratio was calculated (665/615) for each well and fitted to determine inhibition constant (IC50).
The ability of the compounds disclosed herein to inhibit LSD1 activity was quantified and the respective IC50 value was determined. Table 3 provides the IC50 values of various substituted heterocyclic compounds disclosed herein.
(Time-resolved FRET reads energy transfer from a long-lived donor to a nearby acceptor.)

Usually IC50 stands for the concentration at which inhibition is half-maximal. High values mean a need for much substance, low ones inhibition by little substance. As to `N#Cc1ccc(-c2nc(N3CCC(N)CC3)cc(=O)n2-c2ccc(C3CC3)cc2)cc1F` [Example 26, 4-[4-(4-Aminopiperidin-1-yl)-1-(4-cyclopropylphenyl)-6-oxopyrimidin-2-yl]-2-fluorobenzonitrile], the half-inhibitory concentration (IC50) in assay [1] is less than 100 nM; in assay [2], no more than 100 nM.

Take `N#Cc1ccc(-c2nc(N3CCC4NCCC4C3)cc(=O)n2-c2ccc(C3CC3)cc2)cc1F` (stereo not shown) [Example 27, 4-[4-(1,2,3,3a,4,6,7,7a-octahydropyrrolo[3,2-c]pyridin-5-yl)-1-(4-cyclopropylphenyl)-6-oxopyrimidin-2-yl]-2-fluorobenzonitrile]: the values for the half-maximal inhibitory concentration (IC50) in assay [1] and in assay [2] were less than 100 nM and no more than 100 nM, respectively.

In the case of `N#Cc1ccc(-c2nc(N3CCC4CNCC4C3)cc(=O)n2-c2ccc(C3CC3)cc2)cc1F` (stereo not shown) [Example 28, 4-[4-(1,2,3,3a,4,6,7,7a-octahydropyrrolo[3,4-c]pyridin-5-yl)-1-(4-cyclopropylphenyl)-6-oxopyrimidin-2-yl]-2-fluorobenzonitrile], the concentration for half-maximal inhibition (IC50) is less than 100 nM in assay [1] and no more than 100 nM in assay [2].

With `N#Cc1ccc(-c2nc(N3CCC4(CCNC4)CC3)cc(=O)n2-c2ccc(C3CC3)cc2)cc1F` [Example 29, 4-[1-(4-cyclopropylphenyl)-4-(2,8-diazaspiro[4.5]decan-8-yl)-6-oxopyrimidin-2-yl]-2-fluorobenzonitrile], the IC50 was less than 100 nM in assay [1] and no more than 100 nM in assay [2].

With `COc1ccc(-n2c(-c3ccc(C#N)c(F)c3)nc(N3CCC(N)CC3)cc2=O)cc1F` [Example 30, 4-[4-(4-aminopiperidin-1-yl)-1-(3-fluoro-4-methoxyphenyl)-6-oxopyrimidin-2-yl]-2-fluorobenzonitrile], the concentration for half-maximal inhibition (IC50) in assay [1] was 100 to 1000 nM; in assay [2] it was no more than 100 nM.

For the compound `Cn1cc2cc(-n3c(-c4ccc(C#N)c(F)c4)nc(N4CCC(N)CC4)cc3=O)ccc2n1` [Example 31, 4-[4-(4-aminopiperidin-1-yl)-1-(2-methylindazol-5-yl)-6-oxopyrimidin-2-yl]-2-fluorobenzonitrile], the concentration for half-maximal inhibition (IC50) is 100 to 1000 nM in assay [1] and no more than 100 nM in assay [2].

Consider `N#Cc1ccc(-c2nc(N3CCC(N)CC3)cc(=O)n2-c2ccc(C3CC3)c(F)c2)cc1F` [Example 33, 4-[4-(4-aminopiperidin-1-yl)-1-(4-cyclopropyl-3-fluorophenyl)-6-oxopyrimidin-2-yl]-2-fluorobenzonitrile], for which the half-inhibitory concentration (IC50) was less than 100 nM in assay [1] and no more than 100 nM in assay [2].

For the compound `Cn1cc2cc(-c3sc(N4CCC(N)CC4)nc3-c3ccc(C#N)cc3)ccc2n1` [Example 34], the IC50 in assay [1] is less than 100 nM; in assay [2], no more than 100 nM.
